Data on nine compounds can be found in publication PMC5349767 (ACS chemical neuroscience, 2015).

Structures can show the parent of a compound that is named as a salt. Where two headings read alike, the source gives them in different places.

Assay [1] deals with DAT. Conditions: read-out: IC50 as DAT reuptake inhibitor; 3,4-dichloro-α-PVP series; cited from earlier work.
The target of assay [2] is DAT (Rattus norvegicus, UniProt P23977). Briefly: Inhibition of [3H]dopamine uptake in rat caudate synaptosomes. Format: biochemical. Conditions: for Fold decrease in DAT potency relative to comparator compound: 8 vs 7, 15 vs 9, 16 vs 7, 17 vs 10.
The mark [3] stands for this setting: read-out: IC50, nM (SD), inhibition at DAT, 5 nM [3H]dopamine uptake, rat caudate synaptosomes, mean ± SD, n = 3.

As usually defined, the IC50 is the concentration at which inhibition is half-maximal.

Chain of DAT (Rattus norvegicus, UniProt P23977) (P23977 whole entry): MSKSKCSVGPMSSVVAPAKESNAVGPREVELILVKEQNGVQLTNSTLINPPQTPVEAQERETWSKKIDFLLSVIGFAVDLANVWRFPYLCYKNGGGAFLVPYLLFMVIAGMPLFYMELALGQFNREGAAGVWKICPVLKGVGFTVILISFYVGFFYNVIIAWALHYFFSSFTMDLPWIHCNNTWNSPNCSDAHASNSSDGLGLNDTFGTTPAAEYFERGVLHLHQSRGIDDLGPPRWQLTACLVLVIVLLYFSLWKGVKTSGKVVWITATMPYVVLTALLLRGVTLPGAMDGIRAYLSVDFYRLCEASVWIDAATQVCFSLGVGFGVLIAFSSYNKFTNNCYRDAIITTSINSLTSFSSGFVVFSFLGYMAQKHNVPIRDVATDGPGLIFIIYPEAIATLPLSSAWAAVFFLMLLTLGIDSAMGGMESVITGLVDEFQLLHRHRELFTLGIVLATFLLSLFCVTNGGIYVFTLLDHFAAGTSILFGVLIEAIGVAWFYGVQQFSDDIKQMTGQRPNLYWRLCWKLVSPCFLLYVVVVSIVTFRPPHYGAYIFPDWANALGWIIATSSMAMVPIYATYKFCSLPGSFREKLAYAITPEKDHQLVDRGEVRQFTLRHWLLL

`CCCC(C(=O)c1ccc(Cl)c(Cl)c1)N1CCCC1` (stereo not drawn) [3,4-dichloro-α-PVP]: the IC50 with DAT [1] is 0.043 µM.
As for `CCCC(C(=O)c1ccccc1)N1CCCC1` (stereo not drawn) [compound 7, α-Pyrrolidinovalerophenone, reference compound], the IC50 on DAT [2] (setting [3]) was 17.5 nM.
Take `O=C(CN1CCCC1)c1ccccc1.O=C(O)C(=O)O` [compound 8, 2-(1-Pyrolidinyl)-1-acetophenone Oxalate]: the “Fold decrease in DAT potency relative to comparator compound” value on DAT [2] was 185 fold. For the same compound, at DAT [2] (setting [3]), the IC50 amounted to 3250 nM.
For the compound `CC(C)C(C(=O)c1ccccc1)N1CCCC1` (centres unmarked) [compound 11], the IC50 on DAT [2] (setting [3]) was 92.3 nM.
On the same count and under the same terms, under `CCCCC(C(=O)c1ccccc1)N1CCCC1` (centres unmarked) [compound 12, 1-Phenyl-2-(pyrrolidin-1-yl)hexanone Oxalate] stands 11.6 nM.
At DAT [2], `O=C(c1ccccc1)C(C1CCCC1)N1CCCC1` (centres unmarked) [compound 13, 2-Cyclopentyl-1-phenyl-2-(pyrrolidin-1-yl)ethanone Hydrochloride] registered an IC50 of 17.1 nM.
At DAT [2], `O=C(c1ccccc1)C(C1CCCCC1)N1CCCC1` (centres unmarked) [compound 14, 2-Cyclohexyl-1-phenyl-2-(pyrrolidin-1-yl)ethanone Hydrochloride] displayed an IC50 of 8.3 nM.
For `CCCC(C(=O)c1ccccc1)N1CCCCC1` (centres unmarked) [compound 16, 1-Phenyl-2-(piperidin-1-yl)pentan-1-one Hydrochloride], the IC50 on DAT [2] came to 128 nM.
As for `O=C(O)C(=O)O.O=C1c2ccccc2CCC1N1CCCC1` (centres unmarked) [compound 17, 2-(Pyrrolidin-1-yl)-3,4-dihydronaphthalen-1(2H)-one Oxalate], on DAT [2], half-maximal inhibition (IC50) was put at 12900 nM and the “Fold decrease in DAT potency relative to comparator compound” value is recorded as 200 fold.
